Calls of active or inactive are those of the source.
What was measured:
Canis familiaris [1] = assay: Toxicity in dog assessed as effect on blood pressure administered as single dose; assay type: organism-based, Canis lupus familiaris; conditions: in vivo
Canis familiaris [2] = assay: Toxicity in dog assessed as effect on blood pressure administered as repeated dosing; assay type: organism-based, Canis lupus familiaris; conditions: in vivo
Rattus norvegicus [3] = assay: Toxicity in rat assessed as effect on heart rate administered as single dose; assay type: organism-based; conditions: in vivo
Rattus norvegicus [4] = assay: Toxicity in rat assessed as effect on heart rate administered as repeated dosing; assay type: organism-based; conditions: in vivo
Canis familiaris [5] = assay: Toxicity in dog assessed as effect on heart rate administered as single dose; assay type: organism-based, Canis lupus familiaris; conditions: in vivo
Canis familiaris [6] = assay: Toxicity in dog assessed as effect on heart rate administered as repeated dosing; assay type: organism-based, Canis lupus familiaris; conditions: in vivo
Rattus norvegicus [7] = assay: Toxicity in rat assessed as electrocardiogram changes administered as single dose; assay type: organism-based; conditions: in vivo
Rattus norvegicus [8] = assay: Toxicity in rat assessed as electrocardiogram changes administered as repeated dosing; assay type: organism-based; conditions: in vivo
Canis familiaris [9] = assay: Toxicity in dog assessed as electrocardiogram changes administered as single dose; assay type: organism-based, Canis lupus familiaris; conditions: in vivo
Canis familiaris [10] = assay: Toxicity in dog assessed as electrocardiogram changes administered as repeated dosing; assay type: organism-based, Canis lupus familiaris; conditions: in vivo
Rattus norvegicus [11] = assay: Toxicity in rat assessed as effect on pulmonary system functions administered as single dose; assay type: organism-based; conditions: in vivo
Rattus norvegicus [12] = assay: Toxicity in rat assessed as effect on pulmonary system functions administered as repeated dosing; assay type: organism-based; conditions: in vivo
Canis familiaris [13] = assay: Toxicity in dog assessed as effect on pulmonary system functions administered as single dose; assay type: organism-based, Canis lupus familiaris; conditions: in vivo
Canis familiaris [14] = assay: Toxicity in dog assessed as effect on pulmonary system functions administered as repeated dosing; assay type: organism-based, Canis lupus familiaris; conditions: in vivo
Rattus norvegicus [15] = assay: Toxicity in rat assessed as effect on central nervous system functions administered as single dose; assay type: organism-based; conditions: in vivo
Rattus norvegicus [16] = assay: Toxicity in rat assessed as effect on central nervous system functions administered as repeated dosing; assay type: organism-based; conditions: in vivo
Canis familiaris [17] = assay: Toxicity in dog assessed as effect on central nervous system functions administered as single dose; assay type: organism-based, Canis lupus familiaris; conditions: in vivo
Canis familiaris [18] = assay: Toxicity in dog assessed as effect on central nervous system functions administered as repeated dosing; assay type: organism-based, Canis lupus familiaris; conditions: in vivo
[19] = target: Receptor tyrosine-protein kinase erbB-4 (Homo sapiens) (UniProt Q15303); assay: Inhibition of N-terminal GST-tagged recombinant human ErbB4 cytoplasmic domain (708 to 993 residues) expressed in Baculovirus expression system at 1 uM by FRET-based Z'-LYTE assay
[20] = target: Tyrosine-protein kinase BTK (Homo sapiens) (UniProt Q06187); assay: Inhibition of His-tagged full-length recombinant human BTK cytoplasmic domain expressed in Baculovirus expression system at 1 uM by FRET-based Z'-LYTE assay
[21] = target: Cytoplasmic tyrosine-protein kinase BMX (Homo sapiens) (UniProt P51813); assay: Inhibition of His-tagged full-length recombinant human BMX cytoplasmic domain expressed in Baculovirus expression system at 1 uM by FRET-based Z'-LYTE assay
[22] = target: Tyrosine-protein kinase TXK (Homo sapiens) (UniProt P42681); assay: Inhibition of GST-tagged full-length recombinant human TXK cytoplasmic domain expressed in Baculovirus expression system at 1 uM by FRET-based Z'-LYTE assay
[23] = target: Tyrosine-protein kinase Tec (Homo sapiens) (UniProt P42680); assay: Inhibition of His-tagged full-length recombinant human TEC cytoplasmic domain expressed in Baculovirus expression system at 1 uM by FRET-based Z'-LYTE assay
[24] = target: Proto-oncogene tyrosine-protein kinase ROS (Homo sapiens) (UniProt P08922); assay: Inhibition of GST-tagged recombinant human ROS cytoplasmic domain (1883 to 2347 residues) expressed in Baculovirus expression system at 1 uM by FRET-based Z'-LYTE assay
[25] = target: Activated CDC42 kinase 1 (Homo sapiens) (UniProt Q07912); assay: Inhibition of GST-tagged recombinant human ACK catalytic domain (110 to 476 residues) expressed in Baculovirus expression system at 1 uM by FRET-based Z'-LYTE assay
[26] = target: Tyrosine-protein kinase Fer (Homo sapiens) (UniProt P16591); assay: Inhibition of GST-tagged recombinant human FER catalytic domain (541 to 822 residues) expressed in Baculovirus expression system at 1 uM by FRET-based Z'-LYTE assay
[27] = target: Tyrosine-protein kinase JAK3 (Homo sapiens) (UniProt P52333); assay: Inhibition of JAK3 (unknown origin) at 1 uM by cell based assay
[28] = target: Tyrosine-protein kinase Blk (Homo sapiens) (UniProt P51451); assay: Inhibition of BLK (unknown origin) at 1 uM by cell based assay
[29] = target: Proto-oncogene tyrosine-protein kinase ROS (Homo sapiens) (UniProt P08922); assay: Inhibition of ROS (unknown origin) at 1 uM by cell based assay
[30] = Time-dependent inhibition of CYP450 (unknown origin); assay type: ADME; conditions: human
[31] = target: Tyrosine-protein kinase BTK (Homo sapiens) (UniProt Q06187); assay: Inhibition of BTK (unknown origin) at 1 uM by cell based assay
[32] = Apparent intrinsic clearance in human hepatocytes; assay type: ADME, cell-based, Hepatocyte; conditions: read-out: CLH(app)
[33] = Drug metabolism in human liver microsomes assessed as demethylation; assay type: ADME, microsome
[34] = Drug metabolism in human hepatocytes assessed as demethylation; assay type: ADME, cell-based, Hepatocyte
Hepatocyte = conditions: human, hepatocytes, 1 µM
physchem = conditions: octanol/water
in vitro [35] = conditions: human, liver microsomes
in vitro [36] = conditions: dog, MDCK

Chain of Tyrosine-protein kinase BTK (Homo sapiens) (Q06187 whole entry, the tested form may be a part): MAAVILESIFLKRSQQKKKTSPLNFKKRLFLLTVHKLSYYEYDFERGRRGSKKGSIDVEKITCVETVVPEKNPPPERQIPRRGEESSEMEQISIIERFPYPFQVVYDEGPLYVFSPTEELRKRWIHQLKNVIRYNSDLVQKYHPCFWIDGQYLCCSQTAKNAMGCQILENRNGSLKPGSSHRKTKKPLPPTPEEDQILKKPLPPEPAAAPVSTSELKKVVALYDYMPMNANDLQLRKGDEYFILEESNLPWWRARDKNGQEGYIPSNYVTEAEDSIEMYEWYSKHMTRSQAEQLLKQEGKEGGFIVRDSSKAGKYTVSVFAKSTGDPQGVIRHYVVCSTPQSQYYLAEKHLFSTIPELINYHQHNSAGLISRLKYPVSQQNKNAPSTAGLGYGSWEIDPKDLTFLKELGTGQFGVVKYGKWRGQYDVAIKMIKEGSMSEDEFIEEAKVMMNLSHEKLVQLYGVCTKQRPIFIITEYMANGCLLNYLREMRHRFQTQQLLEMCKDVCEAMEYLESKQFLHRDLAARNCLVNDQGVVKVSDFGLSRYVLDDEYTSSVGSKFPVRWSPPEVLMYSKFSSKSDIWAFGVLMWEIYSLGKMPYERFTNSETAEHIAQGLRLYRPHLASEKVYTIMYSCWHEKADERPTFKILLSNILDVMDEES
Chain of Proto-oncogene tyrosine-protein kinase ROS (Homo sapiens) (P08922 whole entry, the tested form may be a part): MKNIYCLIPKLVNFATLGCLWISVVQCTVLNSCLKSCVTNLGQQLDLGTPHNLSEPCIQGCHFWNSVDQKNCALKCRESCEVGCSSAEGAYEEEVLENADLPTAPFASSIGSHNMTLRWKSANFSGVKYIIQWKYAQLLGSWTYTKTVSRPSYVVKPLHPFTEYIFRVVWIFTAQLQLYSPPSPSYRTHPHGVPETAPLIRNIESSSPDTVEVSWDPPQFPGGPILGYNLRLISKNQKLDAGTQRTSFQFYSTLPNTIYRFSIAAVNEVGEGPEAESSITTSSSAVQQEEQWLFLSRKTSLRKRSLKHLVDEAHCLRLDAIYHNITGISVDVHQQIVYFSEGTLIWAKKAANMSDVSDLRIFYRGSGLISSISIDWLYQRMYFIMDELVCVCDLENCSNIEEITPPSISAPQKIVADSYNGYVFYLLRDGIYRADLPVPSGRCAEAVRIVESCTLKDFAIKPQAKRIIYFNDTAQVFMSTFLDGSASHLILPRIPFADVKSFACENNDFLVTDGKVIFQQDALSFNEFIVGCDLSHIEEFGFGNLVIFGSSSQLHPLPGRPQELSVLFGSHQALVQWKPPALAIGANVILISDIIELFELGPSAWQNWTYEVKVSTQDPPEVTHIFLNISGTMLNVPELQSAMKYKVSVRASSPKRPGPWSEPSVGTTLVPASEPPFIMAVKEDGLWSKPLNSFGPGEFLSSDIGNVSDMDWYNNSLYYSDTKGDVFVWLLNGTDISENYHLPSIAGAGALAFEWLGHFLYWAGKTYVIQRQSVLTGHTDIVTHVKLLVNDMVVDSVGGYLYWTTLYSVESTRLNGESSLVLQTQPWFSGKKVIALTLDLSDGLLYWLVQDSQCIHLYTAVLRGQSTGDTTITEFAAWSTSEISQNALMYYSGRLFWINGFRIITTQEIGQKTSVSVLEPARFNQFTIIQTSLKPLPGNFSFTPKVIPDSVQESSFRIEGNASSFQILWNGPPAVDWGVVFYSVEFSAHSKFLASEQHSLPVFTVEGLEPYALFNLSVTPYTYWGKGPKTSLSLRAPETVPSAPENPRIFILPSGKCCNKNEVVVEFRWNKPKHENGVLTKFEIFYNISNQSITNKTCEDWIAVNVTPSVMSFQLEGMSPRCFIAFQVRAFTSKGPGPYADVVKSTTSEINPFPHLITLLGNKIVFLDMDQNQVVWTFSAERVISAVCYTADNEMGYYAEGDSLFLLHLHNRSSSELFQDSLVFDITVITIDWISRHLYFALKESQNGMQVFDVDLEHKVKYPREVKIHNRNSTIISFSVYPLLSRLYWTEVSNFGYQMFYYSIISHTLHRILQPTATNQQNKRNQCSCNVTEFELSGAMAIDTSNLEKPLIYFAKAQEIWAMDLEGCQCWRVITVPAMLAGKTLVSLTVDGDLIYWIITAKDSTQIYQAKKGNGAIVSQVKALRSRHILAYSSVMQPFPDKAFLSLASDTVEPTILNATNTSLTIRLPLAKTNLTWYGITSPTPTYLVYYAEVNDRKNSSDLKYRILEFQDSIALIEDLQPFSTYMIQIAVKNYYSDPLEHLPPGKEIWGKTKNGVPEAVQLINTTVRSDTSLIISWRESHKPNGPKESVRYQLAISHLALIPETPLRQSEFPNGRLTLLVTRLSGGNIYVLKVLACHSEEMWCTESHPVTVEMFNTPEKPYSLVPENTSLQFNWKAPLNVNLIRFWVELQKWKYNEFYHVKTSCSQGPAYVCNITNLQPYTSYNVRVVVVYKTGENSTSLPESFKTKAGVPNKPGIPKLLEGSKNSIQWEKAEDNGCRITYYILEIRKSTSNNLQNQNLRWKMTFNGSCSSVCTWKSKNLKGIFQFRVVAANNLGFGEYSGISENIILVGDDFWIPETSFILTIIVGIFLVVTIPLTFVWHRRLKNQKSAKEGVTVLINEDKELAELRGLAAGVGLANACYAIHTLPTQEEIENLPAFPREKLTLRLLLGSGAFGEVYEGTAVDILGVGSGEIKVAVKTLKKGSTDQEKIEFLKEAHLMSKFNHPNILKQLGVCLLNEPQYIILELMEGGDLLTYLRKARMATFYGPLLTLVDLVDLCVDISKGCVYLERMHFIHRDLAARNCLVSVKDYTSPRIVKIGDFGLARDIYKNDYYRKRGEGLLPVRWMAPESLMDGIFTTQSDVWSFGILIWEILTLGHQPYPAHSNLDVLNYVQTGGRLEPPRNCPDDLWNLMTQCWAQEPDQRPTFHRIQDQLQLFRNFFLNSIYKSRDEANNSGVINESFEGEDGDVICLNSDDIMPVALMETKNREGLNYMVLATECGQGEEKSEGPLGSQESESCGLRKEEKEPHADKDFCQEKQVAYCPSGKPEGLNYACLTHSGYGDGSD
Chain of Tyrosine-protein kinase JAK3 (Homo sapiens) (P52333 whole entry): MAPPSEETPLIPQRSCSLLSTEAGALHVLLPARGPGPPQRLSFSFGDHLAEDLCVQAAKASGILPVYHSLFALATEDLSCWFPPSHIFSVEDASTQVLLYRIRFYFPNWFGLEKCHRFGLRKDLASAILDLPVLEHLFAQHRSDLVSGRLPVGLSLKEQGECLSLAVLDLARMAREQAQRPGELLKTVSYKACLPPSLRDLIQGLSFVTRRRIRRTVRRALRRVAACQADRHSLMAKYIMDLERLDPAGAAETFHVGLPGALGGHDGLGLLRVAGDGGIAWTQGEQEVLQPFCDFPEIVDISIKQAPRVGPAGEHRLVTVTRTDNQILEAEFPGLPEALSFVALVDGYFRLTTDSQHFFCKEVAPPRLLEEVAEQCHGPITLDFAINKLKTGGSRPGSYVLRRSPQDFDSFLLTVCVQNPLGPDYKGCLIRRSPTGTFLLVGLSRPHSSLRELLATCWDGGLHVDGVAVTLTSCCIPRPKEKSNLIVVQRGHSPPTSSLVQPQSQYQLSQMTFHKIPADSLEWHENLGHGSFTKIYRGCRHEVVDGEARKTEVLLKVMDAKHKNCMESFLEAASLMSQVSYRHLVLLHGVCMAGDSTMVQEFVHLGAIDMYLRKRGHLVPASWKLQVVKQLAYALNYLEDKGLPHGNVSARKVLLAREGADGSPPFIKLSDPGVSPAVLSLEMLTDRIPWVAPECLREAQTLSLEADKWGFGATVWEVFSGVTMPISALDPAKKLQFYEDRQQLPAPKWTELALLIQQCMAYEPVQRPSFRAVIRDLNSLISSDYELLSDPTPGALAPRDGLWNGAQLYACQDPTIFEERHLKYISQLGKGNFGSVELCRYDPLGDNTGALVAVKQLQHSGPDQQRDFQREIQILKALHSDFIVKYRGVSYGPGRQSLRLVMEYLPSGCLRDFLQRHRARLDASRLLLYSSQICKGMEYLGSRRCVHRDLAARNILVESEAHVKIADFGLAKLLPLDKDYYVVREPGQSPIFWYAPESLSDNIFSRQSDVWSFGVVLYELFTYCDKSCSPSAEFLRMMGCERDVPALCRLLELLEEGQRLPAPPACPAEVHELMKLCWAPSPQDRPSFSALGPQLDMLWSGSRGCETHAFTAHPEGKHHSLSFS
Chain of Tyrosine-protein kinase Fer (Homo sapiens) (P16591 whole entry, looked up, the tested form may be a part): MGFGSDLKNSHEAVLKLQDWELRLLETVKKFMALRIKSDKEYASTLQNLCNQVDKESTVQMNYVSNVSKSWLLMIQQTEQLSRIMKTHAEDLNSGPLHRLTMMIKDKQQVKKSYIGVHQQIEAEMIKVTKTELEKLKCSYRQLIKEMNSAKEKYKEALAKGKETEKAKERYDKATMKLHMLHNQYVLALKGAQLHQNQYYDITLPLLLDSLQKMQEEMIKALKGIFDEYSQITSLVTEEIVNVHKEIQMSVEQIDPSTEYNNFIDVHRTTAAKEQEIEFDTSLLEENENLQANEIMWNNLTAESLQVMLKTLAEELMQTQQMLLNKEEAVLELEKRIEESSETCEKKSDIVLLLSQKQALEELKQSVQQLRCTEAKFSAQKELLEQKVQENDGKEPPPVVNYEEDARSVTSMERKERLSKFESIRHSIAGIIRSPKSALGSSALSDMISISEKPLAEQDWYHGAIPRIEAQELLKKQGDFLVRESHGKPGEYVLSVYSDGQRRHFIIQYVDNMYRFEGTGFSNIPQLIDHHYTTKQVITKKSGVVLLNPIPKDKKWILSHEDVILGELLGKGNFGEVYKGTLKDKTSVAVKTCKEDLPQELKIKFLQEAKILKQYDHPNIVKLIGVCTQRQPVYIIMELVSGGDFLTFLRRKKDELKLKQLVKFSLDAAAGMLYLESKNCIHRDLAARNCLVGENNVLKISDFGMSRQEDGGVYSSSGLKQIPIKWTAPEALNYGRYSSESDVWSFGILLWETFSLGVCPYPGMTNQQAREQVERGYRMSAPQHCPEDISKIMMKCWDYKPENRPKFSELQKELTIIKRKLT

C=CC(=O)N[C@@H]1CN(c2nc(Nc3cn(C)nc3OC)c3ncn(C)c3n2)C[C@H]1F [MAVELERTINIB]
Metabolite_Detected: Drug metabolism [33] | Drug metabolism [34]
active: inhibition [26] | inhibition [27] | inhibition [28] | inhibition [29] | inhibition [31]
9 ×10⁻⁶ cm/s: Papp (in vitro [36])
> 50%: inhibition [19] | inhibition [20] | inhibition [21] | inhibition [22] | inhibition [23] | inhibition [24] | inhibition [25]
Non-Toxic: Activity (Canis familiaris [1]) | Activity (Canis familiaris [2]) | Activity (Rattus norvegicus [3]) | Activity (Rattus norvegicus [4]) | Activity (Canis familiaris [5]) | Activity (Canis familiaris [6]) | Activity (Rattus norvegicus [7]) | Activity (Rattus norvegicus [8]) | Activity (Canis familiaris [9]) | Activity (Canis familiaris [10]) | Activity (Rattus norvegicus [11]) | Activity (Rattus norvegicus [12]) | Activity (Canis familiaris [13]) | Activity (Canis familiaris [14]) | Activity (Rattus norvegicus [15]) | Activity (Rattus norvegicus [16]) | Activity (Canis familiaris [17]) | Activity (Canis familiaris [18])
8 µL/min/mg: microsomal CLint at […], 1 µM (in vitro [35])
Not Active: TDI [30]
3 µL/min/mg: CLH (Hepatocyte)
2: logD (physchem)
3 mL/min/kg: CLint scaled [32]

Reference: ChEMBL document CHEMBL4177539, “Discovery of N-((3R,4R)-4-Fluoro-1-(6-((3-methoxy-1-methyl-1H-pyrazol-4-yl)amino)-9-methyl-9H-purin-2-yl)pyrrolidine-3-yl)acrylamide (PF-06747775) through Structure-Based Drug Design: A High Affinity Irreversible Inhibitor Targeting Oncogenic EGFR Mutants with Selectivity over Wild-Type EGFR” (J Med Chem, 2017)
